Source: patent US8518980B2, “Treatment of Duchenne muscular dystrophy” (Summit Corporation PLC, priority 2006, dated 2013)

Each compound was assayed on Utrophin A promoter linked to a luciferase reporter gene (H2K/mdx/Utro A reporter cell line) (assay: Luciferase reporter assay (murine H2K cells)). Details: Mus musculus, H2K mdx.

SMILES	activity at 10 µM
O=C(COc1ccc2c(c1)OCO2)Nc1nc2ccccc2s1 [Example 614, 2-(Benzo[d][1,3]dioxol-5-yloxy)-N-(benzo[d]thiazol-2-yl)acetamide]	< 200%
O=[N+]([O-])c1ccc2nc(-c3ccccc3)[nH]c2c1 [Example 604, 6-Nitro-2-phenyl-1H-benzo[d]imidazole]	301 to 400%
Cc1cccc(-c2nc3cc([N+](=O)[O-])ccc3o2)c1 [Example 533, 5-nitro-2-m-tolylbenzo[d]oxazole]	201 to 300%
Cc1cc2nc(-c3ccc(N)cc3)oc2cc1C [Example 485, 4-(5,6-dimethylbenzo[d]oxazol-2-yl)aniline]	201 to 300%
Cc1ccc(NC(=O)Nc2nc3ccccc3s2)cc1 [Example 637, 1-(benzo[d]thiazol-2-yl)-3-p-tolylurea]	301 to 400%
CN(C)c1ccc(-c2nc3ccccc3o2)cc1 [Example 486, 4-(benzo[d]oxazol-2-yl)-N,N-dimethylaniline]	< 200%
CC(C)c1ccc2oc(-c3ccc(N)cc3O)nc2c1 [Example 565, 5-amino-2-(5-isopropylbenzo[d]oxazol-2-yl)phenol]	301 to 400%
O=C(Nc1ccccc1-c1nc2ccccc2[nH]1)c1ccc(S(=O)(=O)N2CCCC2)cc1 [Example 511, N-(2-(1H-benzo[d]imidazol-2-yl)phenyl)-4-(pyrrolidin-1-ylsulfonyl)benzamide]	< 200%
Clc1ccc(OCc2nc3ccccc3n2Cc2ccccc2Cl)c(Cl)c1 [Example 465, 1-(2-chlorobenzyl)-2-((2,4-dichlorophenoxy)methyl)-1H-benzo[d]imidazole]	< 200%
CC(=O)Nc1ccc(-c2nc3ccccc3[nH]2)cc1 [Example 591, N-(4-(1H-Benzo[d]imidazol-2-yl)phenyl)acetamide]	301 to 400%
Nc1ccc2oc(-c3ccc(Cl)cc3)nc2c1 [Example 488, 2-(4-chlorophenyl)benzo[d]oxazol-5-amine]	201 to 300%
Cc1ccc2nc(-c3ccc(NC(=O)CSc4nnc[nH]4)cc3)sc2c1 [Example 654, 2-(4H-1,2,4-triazol-3-ylthio)-N-(4-(6-methylbenzo[d]thiazol-2-yl)phenyl)acetamide]	301 to 400%
Nc1ccc2nc(-c3cccc(Cl)c3)oc2c1 [Example 598, 2-(3-Chlorophenyl)benzo[d]oxazol-6-amine]	301 to 400%
Cc1cc2nc(-c3cccc(NC(=O)c4ccco4)c3)oc2cc1C [Example 623, N-(3-(5,6-dimethylbenzo[d]oxazol-2-yl)phenyl)furan-2-carboxamide]	> 401%

Same assay, conditions: Table 2; luciferase level relative to control; final concentration of 10 μM

SMILES	Activity
O=C(c1ccccc1)c1ccc2nc(-c3ccccc3)[nH]c2c1 [Example 581, Phenyl (2-phenyl-1H-benzo[d]imidazol-6-yl)methanone]	+ (Up to 200% relative to control)
